From a melting point compilation (Tetko et al.; mined from patent text by program, amines drawn as free bases though some values may be those of a salt) come the findings set out here.

Bounds are passed on as bounds.

For the compound `Cc1nc(-c2ccc(C(F)(F)F)cc2)oc1Sc1ccc(Cc2nn[nH]n2)cc1`, the melting point was found to be 214 °C.
On to `COC(=O)Cc1c(C(=O)OC)ccn1CCCl`, for which the melting point was 110 to 111 °C.
`COc1ccc(N2CCOCC2)c2sc(C(=O)NCC(=O)Cc3cccs3)nc12` yielded a melting point of 165 °C.
On to `COC(=O)Cc1ccc(OC)c([N+](=O)[O-])c1`, for which the melting point lay in the range of 101 to 102 °C.
As for `Cc1nc(NC(=O)Nc2ccccc2)sc1C(=O)NCc1ccccc1`, the figure is more than 300 °C.
As to `N#CCc1cccc(OCc2csc(-c3ccccc3)n2)c1`, the melting point is 108 to 110 °C.
The compound `CCC1(C)Cc2c(C)c(Cl)c(C=O)c(C)c2C1` (stereo not given) came in with a melting point of 89 to 90 °C.
The compound `CC(=O)OCCCNC(=O)C1=C(C(=O)Nc2ccc(Cl)cc2F)CCCC1` returned a melting point of 127 to 128 °C.
In the case of `O=C(Nc1ccc(-n2nc(C(F)(F)F)cc2OC(F)F)cc1)c1ccncc1`, the melting point was in the range of 154 to 155 °C.
As for `COc1cccc2c1CCCC2=NO`, the figure is 158 to 159 °C; as for `CCn1nc(C)c2nc(C)nc(N3CC3)c21`, 66 to 69 °C; as for `Nc1ncnc2c1ncn2Cc1nc2ccc(Br)cc2c(=O)n1-c1ccccc1Cl`, 284 to 285 °C.
The value for `CON=C(c1ccccc1)c1ccc2c(c1)NC(=O)CO2` was 147 to 149 °C.
The compound `COCCn1nc2c(N)nc3ccccc3c2c1CC(C)(C)C#N` returned a melting point of 206 to 208 °C.
In turn, `C=CCc1cnc2c([N+](=O)[O-])cccc2c1Cl` yielded a melting point of 64 to 66 °C.
As for `O=C1c2cc(-c3ccccc3)ccc2-c2c1c1ccc([N+](=O)[O-])cc1c(=O)n2CCCNS(=O)(=O)c1ccccc1`, the figure is 246 to 247 °C; as for `CCOC(=O)C1CCc2cc(Cc3cnc(N)s3)ccc2C1` (stereo not given), 147 to 149 °C; as for `NC(=O)c1c(I)cc(I)c(C(N)=O)c1I`, 245 to 248 °C.
The value for `C=CCOC(C(Cc1ccc(Cl)cc1)n1cncn1)C1(C)COCOC1` (stereo not given) was 113 to 115 °C; that for `FC(F)(F)c1ccc(-c2cc(C(F)(F)F)n3ncc(Br)c3n2)cc1` was 136 °C.
As for `CCNc1cc(-c2c[nH]cn2)ccn1`, the figure is 135 to 137 °C; as for `O=C(NC(=O)c1cccs1)NC1CCN(Cc2ccc3ccccc3c2)CC1`, 217 to 219 °C; as for `COc1ccc2cc(NCc3ccc(OCc4ccccc4)cc3)ccc2c1`, 139 to 141 °C.
The compound `CC(=O)NC(COC(F)F)C(=O)NCc1ccccc1` (stereo not given) returned a melting point of 173 °C.
As for `CCC(O)(c1cccc(C(F)(F)F)c1)c1ccc(O)cc1O` (stereo not given), the figure is 137 to 138 °C; as for `Cc1cn(C(C)(C)C(=O)Nc2ccccc2)nc1-c1ccccc1`, 116 to 119 °C.
`CCCCCCCCCCCCCCCCCCOC1OCC(CNC(=O)C(F)(F)F)O1` (stereo not given): the melting point was 80 °C.
As to `CCCNC(=O)C1(CCCCN2CCC(N3Cc4ccccc4C3=O)CC2)c2ccccc2-c2cccnc21` (stereo not given), the melting point is 52 to 54 °C.
The value for `CCOC(=O)c1ncn2c1CN(C)C(=S)c1ccccc1-2` was 164 to 165 °C; that for `COc1cccc(CCCCCCOc2ccc(C(=O)O)c(O)c2)c1OC` was 115 to 116 °C; that for `CCCn1nc(-c2cc(C(C)(C)C)c(O)c(C(C)(C)C)c2)c2cccnc21` was 97 to 98 °C.
Compound `CN1C(=O)SC(=Cc2ccc([N+](=O)[O-])cc2)C1=O` showed a melting point of 233 to 234 °C.
The value for `CN1CCC(O)(c2ccc(F)cc2F)C1` (stereo not given) was 117 to 119 °C; that for `CCCc1cc2c(cc1C=NO)OCO2` was 83 °C.
As for `CCn1cc(C(=O)O)c(=O)c2cc(F)c(N3CCN(C)C(C)C3)cc21` (stereo not given), the figure is 244 to 246 °C; as for `C#Cc1ccc2c(c1)C(c1ccccn1)=NCc1c(C(=O)NC)ncn1-2`, 215 to 216 °C.
As for `Cc1c(-c2ccccc2)oc2c(NC(=O)C(F)(F)F)cccc2c1=O`, the melting point was in the range of 175 to 176 °C.
Compound `O=S(=O)(c1cc(C(F)(F)F)[nH]c1-c1ccc(Cl)cc1)C(F)(F)F` showed a melting point of 167 to 169 °C.
The value for `CC(=O)Nc1cc(=O)c2cc(Oc3ccccc3)c(NS(C)(=O)=O)cc2o1` was 236 to 238 °C.
`O=[N+]([O-])c1ccc(F)c(Br)c1F` yielded a melting point of 50 to 51.5 °C.
`C=CCOc1nc2cccc(C(=O)OC)c2n1Cc1ccc(-c2ccccc2C#N)cc1`: the melting point was in the range of 118 to 119 °C.
The value for `CCOc1ncc(I)cc1C(=O)OC` was 67 to 69 °C; that for `CC(C)(Oc1ccc(C2CCOCC2)cc1)C(=O)O` was 112 °C.
The value for `CCCCS(=O)(=O)Nc1c(C)c(C)c2c(c1C)C(c1ccc(C(C)C)cc1)CO2` (stereo not given) was 96 to 97 °C; that for `O=C(O)CCCCCCCn1nc(-c2ccccc2)c(-c2ccccc2)nc1=O` was 111 to 113 °C; that for `CC(C)(C#N)c1cc(C=O)cc(C(C)(C)C#N)c1` was 145 to 147 °C.
As for `CCOCc1nc2c(N)nc3cc(Cl)ccc3c2n1CC(C)(C)O`, the figure is 238 to 240 °C; as for `COC(=O)Cc1ccc(OCCNC(=O)C2Cc3ccccc3N2S(=O)(=O)c2ccc(-c3cccc(C(F)(F)F)c3)cc2)cc1C` (stereo not given), 53 to 57 °C.
As for `O=C(O)c1cc2nc(-c3ccccc3)nn2cc1F`, the melting point is more than 250 °C.
As for `CCCc1c(OCCCCCCc2cccc(OC)c2OC)ccc(C(=O)O)c1O`, the figure is 115 to 118 °C.
As for `COC(=O)c1csc(CCCc2coc3nc(N)nc(N)c23)c1`, the figure is 156 to 157 °C; as for `Clc1ccc(C(Cl)(Cl)Cl)cn1`, 51 to 54 °C; as for `CCOC(=O)c1nn(-c2ccc(OC)cc2)c2c1CCN(c1ccc(I)cc1)C2=O`, 173 to 175 °C.
`C[C@@H]1OC(=O)N[C@H]1Cc1ccccc1` gave a melting point of 116 °C.
In the case of `NC(=O)Cc1c(F)cccc1C(F)(F)F`, the melting point lay in the range of 172 to 174 °C.
As for `COC(=O)CN1CCCN(c2ccc(-c3ccc(C#N)cc3)cc2)C1=O`, the figure is 145 to 150 °C.
The value for `NC1CCNC(c2cnccn2)C1` (stereo not given) was 158 to 160 °C.
The compound `O=C(Cc1ccccc1)c1ccc(C(=O)Cc2ccccc2)cc1` came in with a melting point of 171 to 173 °C.
As for `CC(O)c1ccc(-c2ccc(O)cc2)cc1` (stereo not given), the figure is 159 to 160 °C; as for `O=[N+]([O-])C1=Cc2cc3c(cc2OC1)OCO3`, 139 °C; as for `CCN1C(=O)C(C)(C)C(=O)N(C)c2cc(CN(C)Cc3ccccc3CN3C(=O)CCc4ccccc43)ccc21`, 125 to 127 °C.
The value for `CN(C(=O)C1CCC1)c1cccc(-c2ccnc3c(C(=O)c4ccccc4)cnn23)c1` was 168 to 170 °C; that for `COc1ccc2c(=O)c3ccccc3oc2c1` was 127 to 129 °C.
Consider `CCn1ncc2c3onc(-c4ccccc4)c3cnc21`, for which the melting point lay within 151 to 153 °C.
With `CC1Cc2cc3c(cc2C(c2ccc([N+](=O)[O-])cc2)=NN1c1nc(=O)n(C2CC2)s1)OCO3` (stereo not given), the melting point is 246 to 247 °C.
The value for `CCCCOc1c(CNC(=O)OC(C)(C)C)n(CC(C)(C)C)c(=O)c2ccc(C=O)cc12` was 149 to 150 °C.
As for `COCCOc1ccc2c(Cl)c(C#N)cnc2c1`, the figure is 143 to 145 °C; as for `COc1cc(-c2ccccc2C)ccc1C(=O)N1Cc2ccc(C(=O)N(C)CC(O)C(O)C(O)C(O)CO)n2Cc2ccccc21` (stereo not given), 144 to 146 °C; as for `COC1C(O)CCC(O)(CSC)C1C1(C)OC1CC=C(C)C` (stereo not given), 52 to 53 °C.
For `COc1ccc2c(-c3ccc(Br)cc3)csc2c1`, the melting point was in the range of 102 to 104 °C.
`CCN(CC)CCCNC(=O)C(C)n1cc(-c2ccccc2)c(-c2ccccc2)n1` (stereo not given) had a melting point of 87 to 89 °C.
As for `COc1ccc(-c2cc(OCC3CO3)c3ccccc3n2)cc1` (racemic), the figure is 100 to 106 °C; as for `NCCCC(F)(F)C(F)(F)C(F)(F)C(F)(F)C(F)(F)C(F)(F)C(F)(F)C(F)(F)C(F)(F)C(F)(F)F`, 53 to 55 °C; as for `COC(=O)COC(=O)C(c1ccccc1)N1CCN(c2ccc(NC(=O)c3ccccc3-c3ccc(C(F)(F)F)cc3)cc2)CC1` (stereo not given), 106 °C.
The value for `CCOC(=O)c1cc2c3ccccc3n(Cc3ccccc3)c2c(C)n1` was 155 to 156 °C; that for `CCCc1ccc(C=NN=Cc2ccc(F)c(F)c2)cc1` was 50 °C; that for `CC(=O)c1cc2c(c(O)c1Cl)C(C)(C)CC2(C)C` was 78 to 80 °C.
In the case of `CCCCCCCCCCCCCCCCCCOc1ccc(S(=O)(=O)Nc2ccccc2Cl)cc1NC(=O)CC(=O)N1CCc2ccccc21`, the melting point is 124 to 128 °C.
As for `CCCCCCCCCCCC(=O)c1c(-c2ccccc2)[nH]n(-c2ccccc2)c1=O`, the figure is 69 °C; as for `O=C(NCc1nc2cnc3cc(Br)ccc3c2n1CC1CCOCC1)C1CC1`, 140 °C; as for `NC(=O)c1c(Cl)c(-c2ccccc2)n2c1CN(S(=O)(=O)c1ccc([N+](=O)[O-])cc1)CC2`, 203 to 205 °C.
As for `CCCCCCc1cc(-c2ccccc2)c(OCC(=O)O)c(-c2ccccc2)c1`, the figure is 87 to 89 °C; as for `CC(=O)C1=C(C#N)C(c2cccc(C#N)c2Br)c2c[nH]nc2N1` (stereo not given), more than 230 °C.
Compound `CSc1c2c3c(cccc3n1CO)C1C=C(C)CN(C)C1C2` (stereo not given) displayed a melting point of 133 to 135 °C.
The value for `CC(=O)NC(=O)Nc1ccc(OS(=O)(=O)c2cccc(C(F)(F)F)c2)cc1[N+](=O)[O-]` was 196 °C; that for `N#CNc1nnc(-c2ccc3occ(-c4cccc(OC(F)(F)F)c4)c3c2)o1` was 237 to 238 °C; that for `O=C(O)c1cnc2cc(F)c(F)cc2c1` was 290 °C.
The value for `Cc1cc(C)c2c(c1)NC(C)C2` (stereo not given) was 75 °C.
The value for `Cc1cc(Br)c(C)cc1Cl` was 60 to 64 °C.
In the case of `CC(CCCO)C(c1cc(F)ccc1F)S(=O)(=O)c1ccc(Cl)cc1` (stereo not given), the melting point was in the range of 67 to 69 °C.

As usually defined, the melting point is the temperature of the solid-liquid transition.
